Measurements: publication PMC6979384, “Characterization of the plant homeodomain (PHD) reader family for their histone tail interactions” (Epigenetics & Chromatin, 2020)

Key:
Assay in all cases: Histone peptide microarray
Format in all cases: binding, human
Conditions in all cases: histone peptide array
[1] = test system: ING2
How it was run: (§1)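 GST-PHD reader, 0.5 μM, probed on 293-peptide histone array (single/combinatorial PTMs); optimized array protocol; signal = mean ± SD, n = 4.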

[2] = test system: KDM5A (1)
How it was run: as §1

[3] = test system: TAF3
How it was run: as §1

[4] = test system: PHF8
How it was run: as §1

[5] = test system: MORC3 (CW)
How it was run: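 Purified PHD finger domains fused to GST are screened against 293 synthetic histone peptides bearing one or several post-translational modifications. The protein is used at 0.5 μM, and the signal from four replicate arrays is averaged, with standard deviation given.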

[6] = test system: ING4
How it was run: as §1

[7] = test system: KDM5B (3)
How it was run: as §1

[8] = test system: MLL5
How it was run: as §1

[9] = test system: BPTF (PB)
How it was run: as §1

[10] = test system: DPF2 (PPC2W2)
How it was run: as §1

[11] = test system: TRIM66 (PB)
How it was run: as §1

[12] = test system: KDM5A (3)
How it was run: as §1

[13] = test system: PHF2
How it was run: as §1

[14] = test system: PHF13
How it was run: as §1

[15] = test system: RAG2
How it was run: as §1

[16] = test system: BAZ2B
How it was run: as §1

[17] = test system: ING1
How it was run: as §1

[18] = test system: KDM4C (TTP)
How it was run: as §1

[19] = test system: PHF23
How it was run: as §1

[20] = test system: KDM7A
How it was run: as §1

[21] = test system: CHD4 (PPCC)
How it was run: as §1

[22] = test system: SP140L
How it was run: as §1

[23] = test system: CHD5 (PCC)
How it was run: as §1

[24] = test system: DIDO1
How it was run: as §1

[25] = test system: KDM5B (1)
How it was run: as §1

[26] = test system: PHRF1 (RP)
How it was run: as §1

[27] = test system: ING5
How it was run: as §1

[28] = test system: ING3
How it was run: as §1

[29] = test system: PHF21A
How it was run: as §1

[30] = test system: AIRE (PP)
How it was run: as §1

[31] = test system: CHD5 (PPCC)
How it was run: as §1

[32] = sheet "Array Heatmap", GST-tagged reader, total n = 4

## H3K4me3 + R8me2s + K9me3: H3 1-20
[1]; GST-tagged ING2, arrays performed twice, n of 4
  Array Heatmap signal, ING2: 0.784
[2]; GST-tagged KDM5A (1), arrays performed twice, n of 4
  Array Heatmap signal, KDM5A (1): 0.429
[3]; GST-tagged TAF3, arrays performed twice, n of 4
  Array Heatmap signal, TAF3: 0.3814
[4]; GST-tagged PHF8, arrays performed twice, n of 4
  Array Heatmap signal, PHF8: 0.5138
[5]; GST-tagged MORC3 (CW = CW-type Zn-finger), arrays performed twice, n of 4
  Array Heatmap signal, MORC3 (CW): 0.5559
[6]; GST-tagged ING4, arrays performed twice, n of 4
  Array Heatmap signal, ING4: 0.4627
[7]; GST-tagged KDM5B (3), arrays performed twice, n of 4
  Array Heatmap signal, KDM5B (3): 0.5614
[8]; GST-tagged MLL5, arrays performed twice, n of 4
  Array Heatmap signal, MLL5: 0.7037
[9]; GST-tagged BPTF (PB = PHD + Bromodomain), arrays performed twice, n of 4
  Array Heatmap signal, BPTF (PB): 0.3866
[10]; GST-tagged DPF2 (PPC2W2 = Dual PHD + C2W2-type Zn-finger), arrays performed twice, n of 4
  Array Heatmap signal, DPF2 (PPC2W2): 0.6565
[11]; GST-tagged TRIM66 (PB = PHD + Bromodomain), arrays performed twice, n of 4
  Array Heatmap signal, TRIM66 (PB): 0.6066
[12]; GST-tagged KDM5A (3), arrays performed twice, n of 4
  Array Heatmap signal, KDM5A (3): 0.7166
[13]; GST-tagged PHF2, arrays performed twice, n of 4
  Array Heatmap signal, PHF2: 0.8739
[14]; GST-tagged PHF13, arrays performed twice, n of 4
  Array Heatmap signal, PHF13: 0.633
[15]; GST-tagged RAG2, arrays performed twice, n of 4
  Array Heatmap signal, RAG2: 0.4516
[16]; GST-tagged BAZ2B, arrays performed twice, n of 4
  Array Heatmap signal, BAZ2B: 0.4293
[17]; GST-tagged ING1, arrays performed twice, n of 4
  Array Heatmap signal, ING1: 0.7489
[18]; GST-tagged KDM4C (TTP = Tandem Tudor domain + PHD), arrays performed twice, n of 4
  Array Heatmap signal, KDM4C (TTP): 0.4847
[19]; GST-tagged PHF23, arrays performed twice, n of 4
  Array Heatmap signal, PHF23: 0.6635
[20]; GST-tagged KDM7A, arrays performed twice, n of 4
  Array Heatmap signal, KDM7A: 0.3751
[21]; GST-tagged CHD4 (PPCC = Dual PHD + Dual Chromodomain), arrays performed twice, n of 4
  Array Heatmap signal, CHD4 (PPCC): 0.5208
[22]; GST-tagged SP140L, arrays performed twice, n of 4
  Array Heatmap signal, SP140L: 0.3193
[23]; GST-tagged CHD5 (PCC = PHD + Dual Chromodomain), arrays performed twice, n of 4
  Array Heatmap signal, CHD5 (PCC): 0.7143
[24]; GST-tagged DIDO1, arrays performed twice, n of 4
  Array Heatmap signal, DIDO1: 0.802
[25]; GST-tagged KDM5B (1), arrays performed twice, n of 4
  Array Heatmap signal, KDM5B (1): 0.5808
[26]; GST-tagged PHRF1 (RP), arrays performed twice, n of 4
  Array Heatmap signal, PHRF1 (RP): 0.4616
[27]; GST-tagged ING5, arrays performed twice, n of 4
  Array Heatmap signal, ING5: 0.3819
[28]; GST-tagged ING3, arrays performed twice, n of 4
  Array Heatmap signal, ING3: 0.5388
[29]; GST-tagged PHF21A, arrays performed twice, n of 4
  Array Heatmap signal, PHF21A: 0.4267
[30]; GST-tagged AIRE (PP), arrays performed twice, n of 4
  Array Heatmap signal, AIRE (PP): 0.378
[31]; GST-tagged CHD5 (PPCC = Dual PHD + Dual Chromodomain), arrays performed twice, n of 4
  Array Heatmap signal, CHD5 (PPCC): 0.5185

## H3K4me3 + T6p: H3 1-20
[1]; [32]
  Array Heatmap signal, ING2: 0.6187
[2]; [32]
  Array Heatmap signal, KDM5A (1): 0.452
[3]; [32]
  Array Heatmap signal, TAF3: 0.309
[4]; [32]
  Array Heatmap signal, PHF8: 0.3678
[5]; [32]
  Array Heatmap signal, MORC3 (CW): 0.3571
[6]; [32]
  Array Heatmap signal, ING4: 0.4567
[7]; [32]
  Array Heatmap signal, KDM5B (3): 0.4934
[8]; [32]
  Array Heatmap signal, MLL5: 0.5684
[9]; [32]
  Array Heatmap signal, BPTF (PB): 0.3519
[10]; [32]
  Array Heatmap signal, DPF2 (PPC2W2): 0.6833
[11]; [32]
  Array Heatmap signal, TRIM66 (PB): 0.549
[12]; [32]
  Array Heatmap signal, KDM5A (3): 0.4911
[13]; [32]
  Array Heatmap signal, PHF2: 0.6668
[14]; [32]
  Array Heatmap signal, PHF13: 0.5795
[15]; [32]
  Array Heatmap signal, RAG2: 0.2443
[16]; [32]
  Array Heatmap signal, BAZ2B: 0.4415
[17]; [32]
  Array Heatmap signal, ING1: 0.5971
[18]; [32]
  Array Heatmap signal, KDM4C (TTP): 0.4688
[19]; [32]
  Array Heatmap signal, PHF23: 0.5195
[20]; [32]
  Array Heatmap signal, KDM7A: 0.3405
[21]; [32]
  Array Heatmap signal, CHD4 (PPCC): 0.5535
[22]; [32]
  Array Heatmap signal, SP140L: 0.3667
[23]; [32]
  Array Heatmap signal, CHD5 (PCC): 0.7037
[24]; [32]
  Array Heatmap signal, DIDO1: 0.7585
[25]; [32]
  Array Heatmap signal, KDM5B (1): 0.6162
[26]; [32]
  Array Heatmap signal, PHRF1 (RP): 0.5056
[27]; [32]
  Array Heatmap signal, ING5: 0.3481
[28]; [32]
  Array Heatmap signal, ING3: 0.4695
[29]; [32]
  Array Heatmap signal, PHF21A: 0.4225
[30]; [32]
  Array Heatmap signal, AIRE (PP): 0.4133
[31]; [32]
  Array Heatmap signal, CHD5 (PPCC): 0.54
